For the data set the following is noted: human, pH 7.4.

Structures can show the parent of a compound that is named as a salt. Where two headings read alike, the source gives them in different places.

On to `CNCC(=O)NCCc1ccc(OC(=O)c2ccccc2)c(OC(=O)c2ccccc2)c1.Cl` [Compound-1, 4-(2-(2-(methylamino)acetamido)ethyl)-1,2,-phenylene dibenzoate hydrochloride], for which the “The cumulative amount of test compounds” value by setting is: (1 h) 0.67 mg; (2 h) 1.33 mg; (4 h) 2.67 mg; (8 h) 5.25 mg.

As to `Br.CNCC(=O)OC(C)OC(=O)NCCc1ccc(OC(=O)c2ccccc2)c(OC(=O)c2ccccc2)c1` (centres unmarked) [Compound-3, 4-(6-methyl-4,8-dioxo-5,7-dioxa-2,9-diazadecan-11-yl)-1,2,-phenylene dibenzoate hydrobromide], the “The cumulative amount of test compounds” value by setting is: (1 h) 0.61 mg; (2 h) 1.23 mg; (4 h) 2.49 mg; (8 h) 5.01 mg.

Take `Cl.NC(Cc1ccccc1)C(=O)NCCc1ccc(OC(=O)c2ccccc2)c(OC(=O)c2ccccc2)c1` (centres unmarked) [Compound-4, 4-(2-(2-amino-3-phenylpropanamido)ethyl)-1,2,-phenylene dibenzoate hydrochloride]: the “The cumulative amount of test compounds” value runs as follows: (1 h) 0.59 mg; (2 h) 1.21 mg; (4 h) 2.45 mg; (8 h) 4.93 mg.

Regarding `CCC(CC)C(=O)Oc1ccc(CCNC(=O)C2CCNCC2)cc1OC(=O)C(CC)CC.Cl` [Compound-6], the “The cumulative amount of test compounds” value (1 h) amounted to 0.63 mg, the “The cumulative amount of test compounds” value (2 h) was 1.25 mg, the “The cumulative amount of test compounds” value (4 h) is 2.53 mg and the “The cumulative amount of test compounds” value (8 h) is on record as 5.03 mg.

As to `CCC(CC)C(=O)Oc1ccc(CCNC(=O)OC2CCC3CCCCN3C2)cc1OC(=O)C(CC)CC` (centres unmarked) [Compound-7, 4-(2-((((-octahydro-1H-quinolizin-3-yl)oxy)carbonyl)amino)ethyl)-1,2,-phenylene bis(2-ethylbutanoate) acetate], the “The cumulative amount of test compounds” value runs as follows: (1 h) 0.64 mg; (2 h) 1.27 mg; (4 h) 2.57 mg; (8 h) 5.05 mg.

With `CC(OC(=O)NCCc1ccc2c(c1)OC(=O)C(N)CC(=O)O2)OC(=O)C(C)C` (centres unmarked) [Compound-8a, 1-(((2-(4-amino-2,5-dioxo-2,3,4,5-tetrahydrobenzo[b][1,4]dioxocin-8-yl)ethyl)carbamoyl)oxy)ethyl isobutyrate hydrofluoride], the “The cumulative amount of test compounds” value by setting is: (1 h) 0.63 mg; (2 h) 1.22 mg; (4 h) 2.43 mg; (8 h) 4.83 mg.

Regarding `CC(OC(=O)NCCc1ccc2c(c1)OC(=O)CC(N)C(=O)O2)OC(=O)C(C)C` (centres unmarked) [Compound-8b, 1-(((2-(3-amino-2,5-dioxo-2,3,4,5-tetrahydrobenzo[b][1,4]dioxocin-8-yl)ethyl)carbamoyl)oxy)ethyl isobutyrate hydrofluoride], the “The cumulative amount of test compounds” value (1 h) is given as 0.62 mg, the “The cumulative amount of test compounds” value (2 h) amounted to 1.24 mg, the “The cumulative amount of test compounds” value (4 h) was 2.47 mg and the “The cumulative amount of test compounds” value (8 h) came to 4.85 mg.

`CCOC(=O)NCCc1ccc(OC(=O)CNC)c(OC(=O)c2ccccc2)c1` [Compound-9b, 5-(2-((ethoxycarbonyl)amino)ethyl)-2-(2-methylamino)acetoxy)phenyl benzoate hydrochloride]: the “The cumulative amount of test compounds” value is, setting by setting: (1 h) 0.62 mg; (2 h) 1.26 mg; (4 h) 2.48 mg; (8 h) 4.95 mg.

Consider `CCCCC(=O)Oc1ccc(C[C@H](N)C(=O)OC(C)C)cc1OC(=O)CCCC.Cl` [Compound-13, (S)-4-(2-amino-3-isopropoxy-3-oxopropyl)-1,2-phenylene dipentanoate hydrochloride], for which the “The cumulative amount of test compounds” value reads like this: (1 h) 0.52 mg; (2 h) 1.05 mg; (4 h) 2.10 mg; (8 h) 4.23 mg.

For the molecule `CCOC(=O)[C@@H](N)Cc1ccc(OC(C)=O)c(OC(C)=O)c1.Cl` [Compound-14, (S)-4-(2-amino-3-ethoxy-3-oxopropyl)-1,2-phenylene diacetate hydrochloride], the “The cumulative amount of test compounds” value was 0.60 mg (1 h), 1.21 mg (2 h), 2.44 mg (4 h) and 4.82 mg (8 h).

Take `CC(C)OC(=O)[C@H](Cc1ccc(OC(=O)c2ccccc2)c(OC(=O)c2ccccc2)c1)NC(=O)CN.Cl` [Compound-16]: the “The cumulative amount of test compounds” value is on record as 0.56 mg (1 h), 1.13 mg (2 h), 2.23 mg (4 h) and 4.49 mg (8 h).

`CCC(CC)OC(=O)[C@H](Cc1ccc(OC(=O)c2ccccc2)c(OC(=O)c2ccccc2)c1)NC(=O)C1CCCN1` (stereo partly drawn) [Compound-17, 4-((2S)-3-oxo-3-(pentan-3-yloxy)-2-(pyrrolidine-2-carboxamido)propyl)-1,2-phenylene dibenzoate hydrofluoride]: the “The cumulative amount of test compounds” value is, setting by setting: (1 h) 0.58 mg; (2 h) 1.15 mg; (4 h) 2.33 mg; (8 h) 4.71 mg.

For `CC(C)OC(=O)[C@H](Cc1ccc(OC(=O)c2ccccc2)c(OC(=O)c2ccccc2)c1)NC(=O)C1CCNCC1` [Compound-18, (S)-4-(3-isopropoxy-3-oxo-2-(piperidine-4-carboxamido)propyl)-1,2-phenylene dibenzoate hydrochloride], the “The cumulative amount of test compounds” value by setting is: (1 h) 0.52 mg; (2 h) 1.03 mg; (4 h) 2.10 mg; (8 h) 4.19 mg.

Consider `CC(C)OC(=O)[C@H](Cc1ccc(OC(=O)C(C)C)c(OC(=O)C(C)C)c1)NC(=O)C1CCN2CCCCC2C1.Cl` (stereo partly drawn) [Compound-19, 4-((2S)-3-isopropoxy-3-2-(octahydro-1H-quinolizine-2-carboxamido)-3-oxopropyl)-1,2-phenylene bis(2-methylpropanoate) hydrochloride], for which the “The cumulative amount of test compounds” value runs as follows: (1 h) 0.48 mg; (2 h) 0.98 mg; (4 h) 2.02 mg; (8 h) 4.09 mg.

Turning to `CC(C)OC(=O)[C@H](Cc1ccc2c(c1)OC(=O)CC(N)C(=O)O2)NC(=O)OC(C)OC(=O)C(C)C` (stereo partly drawn) [Compound-20(a), (2S)-isopropyl 3-(3-amino-2,5-dioxo-2,3,4,5-tetrahydrobenzo[b][1,4]dioxocin-8-yl)-2-(((1-(isobutyryloxy)ethoxy)carbonyl)amino)propanoate hydrobromide], the “The cumulative amount of test compounds” value stood at 0.42 mg (1 h), 0.88 mg (2 h), 1.75 mg (4 h) and 3.49 mg (8 h).

Turning to `CC(C)OC(=O)[C@H](Cc1ccc2c(c1)OC(=O)C(N)CC(=O)O2)NC(=O)OC(C)OC(=O)C(C)C` (stereo partly drawn) [Compound-20(b), (2S)-isopropyl 3-(4-amino-2,5-dioxo-2,3,4,5-tetrahydrobenzo[b][1,4]dioxocin-8-yl)-2-(((1-(isobutyryloxy)ethoxy)carbonyl)amino)propanoate hydrobromide], the “The cumulative amount of test compounds” value reads like this: (1 h) 0.43 mg; (2 h) 0.85 mg; (4 h) 1.78 mg; (8 h) 3.52 mg.

Turning to `CNCC(=O)Oc1ccc(C[C@H](NC(=O)OC(C)OC(=O)C(C)C)C(=O)OC(C)C)cc1OC(=O)c1ccccc1` (stereo partly drawn) [Compound-21(a), 5-((2S)-2-(((1-(isobutyryloxy)ethoxy)carbonyl)amino-3-isopropoxy-3-oxopropyl)-2-(2-(methylamino)acetoxy)phenyl benzoate hydrochloride], the “The cumulative amount of test compounds” value by setting is: (1 h) 0.52 mg; (2 h) 1.08 mg; (4 h) 2.17 mg; (8 h) 4.37 mg.

In the case of `CNCC(=O)Oc1cc(C[C@H](NC(=O)OC(C)OC(=O)C(C)C)C(=O)OC(C)C)ccc1OC(=O)c1ccccc1` (stereo partly drawn) [Compound-21(b), 4-((2S)-2-(((1-(isobutyryloxy)ethoxy)carbonyl)amino-3-isopropoxy-3-oxopropyl)-2-(2-(methylamino)acetoxy)phenyl benzoate hydrochloride], the “The cumulative amount of test compounds” value is, setting by setting: (1 h) 0.51 mg; (2 h) 1.05 mg; (4 h) 2.08 mg; (8 h) 4.19 mg.

`CC(C)OC(=O)[C@H](Cc1ccc(OC(=O)c2ccccc2)c(OC(=O)c2ccccc2)c1)NC(=O)OC1CCN2CCCCC12` (stereo partly drawn) [Compound-22, 4-((2S)-3-isopropoxy-2-((((octahydroindolizin-1-yl)oxy)carbonyl)amino)-3-oxopropyl)-1,2-phenylene dibenzoate acetate]: the “The cumulative amount of test compounds” value was determined as 0.45 mg (1 h), 0.89 mg (2 h), 1.78 mg (4 h) and 3.61 mg (8 h).

As for `CCN(CC)CCOC(=O)c1ccccc1Nc1c(Cl)ccc(C)c1Cl` [Compound-23, 2-(diethylamino)ethyl 2-[(2,6-dichloro-3-methylphenyl)amino]benzoate.acetate], the “The cumulative amount of test compounds” value (1 h) was found to be 0.85 mg, the “The cumulative amount of test compounds” value (2 h) is 1.69 mg, the “The cumulative amount of test compounds” value (4 h) was determined as 3.38 mg and the “The cumulative amount of test compounds” value (8 h) is given as 6.85 mg.
